From patent publication US12357596B2, “Compounds for prevention and treatment of obesity and related disorders” (ABREXA PHARMACEUTICALS, INC., priority 2019, dated 2025)

Test: 28-day once-daily oral gavage toxicity study with 14-day recovery (body weight, food consumption, clinical and anatomic pathology)
Format: in vivo
Conditions: for Decrease of group mean food consumption compared to Group 1 controls: Days 21 to 28
Protocol: J147 or vehicle was administered once daily to Sprague-Dawley rats via oral gavage for 28 consecutive days at a daily dose of 0, 30, 100 or 300 mg/kg. J174 was prepared in a vehicle formulation comprising 5% ethanol, 5% DMSO and 90% corn oil (v/v/v). Certified rodent diet and water was available ad libitum. Groups 1-4 contained 10 animals/sex/group. Groups 1 (control) and 4 (high dose) also included an additional 5 animals/sex/group for use as recovery animals. The recovery animals were maintained on study for a 14-day postdosing recovery period. Animals in Groups 1-4 were monitored for morbidity and mortality, clinical signs, detailed clinical observations, body weight, food consumption, ophthalmologic parameters, neurobehavioral assessment consisting of a Functional Observational Battery (FOB) and a motor activity test, hematology, coagulation, serum chemistry, and urinalysis parameters. Postmortem assessment included necropsy, measurement of selected organ weights, and microscopic evaluation of a standard set of tissues. Plasma samples for bioanalysis were collected on Days 1 and 28 from satellite toxicokinetic animals in Groups 5 through 8. Animals in these groups were euthanized following the last blood sampling and carcasses were discarded without examination. The study protocol is shown below in Table 1.

[1] = male rats, 30 mg/kg/day, Day 14 → 21
[2] = male rats, 30 mg/kg/day, Day 21 → 28
[3] = male rats, 30 mg/kg/day, Day −1 → 7
[4] = male rats, 100 mg/kg/day, Day 7 → 14
[5] = male rats, 100 mg/kg/day, Day 14 → 21
[6] = male rats, 100 mg/kg/day, Day 21 → 28
[7] = male rats, 100 mg/kg/day, Day 28
[8] = male rats, 100 mg/kg/day, Day −1 → 7
[9] = male rats, 300 mg/kg/day, Day 7 → 14
[10] = male rats, 300 mg/kg/day, Day 14 → 21
[11] = male rats, 300 mg/kg/day, Day 21 → 28
[12] = male rats, 300 mg/kg/day, Day 28
[13] = male rats, 300 mg/kg/day, Day −1 → 7
[14] = rats, both sexes, 300 mg/kg/day
[15] = rats, both sexes, 100 and 300 mg/kg/day

COc1cccc(/C=N/N(C(=O)C(F)(F)F)c2ccc(C)cc2C)c1 [J147]
Mean Bodyweight Gain [1]: 39.61 g | Mean Food Consumption [1]: 25.03 | Mean Bodyweight (male rats, 30 mg/kg/day, Day 21): 430.90 g | Mean Bodyweight Gain [2]: 34.51 g | Mean Food Consumption [2]: 25.13 | Mean Bodyweight (male rats, 30 mg/kg/day, Day 28): 465.41 g | Mean Bodyweight (male rats, 30 mg/kg/day, Day −1 (pre-dose)): 285.27 g | Mean Bodyweight Gain [3]: 53.64 g | Mean Food Consumption [3]: 23.90 | Mean Bodyweight Gain (male rats, 30 mg/kg/day, Day −1 → 28): 180.14 g | Mean Bodyweight (male rats, 30 mg/kg/day, Day −2 (pre-dose)): 278.60 g | Mean Bodyweight (male rats, 100 mg/kg/day, Day 7): 335.34 g | Mean Bodyweight Gain [4]: 41.14 d^2 g | Mean Food Consumption [4]: 21.47 dd^2 | Mean Bodyweight (male rats, 100 mg/kg/day, Day 14): 376.48 g | Mean Bodyweight Gain [5]: 33.50 g | Mean Food Consumption [5]: 23.65 | Mean Bodyweight (male rats, 100 mg/kg/day, Day 21): 409.98 g | Mean Bodyweight Gain [6]: 26.89 g | Mean Food Consumption [6]: 23.73 | Decrease of group mean body weight compared to Group 1 controls [7]: 5.9% | Mean Bodyweight [7]: 436.87 g | Mean Bodyweight (male rats, 100 mg/kg/day, Day −1 (pre-dose)): 286.67 g | Mean Bodyweight Gain [8]: 48.67 g | Mean Food Consumption [8]: 23.68 | Mean Bodyweight Gain (male rats, 100 mg/kg/day, Day −1 → 28): 150.20 g | Mean Bodyweight (male rats, 100 mg/kg/day, Day −2 (pre-dose)): 278.57 g | Decrease of group mean food consumption compared to Group 1 controls (male rats, 100 mg/kg/day): 4.9% | Levels of urinary ketones (male rats, 300 mg/kg/day): increased | Mean Food Consumption (male rats, 300 mg/kg/day for 28 days, Day 28 → 35 (recovery)): 26.98 | Mean Bodyweight Gain (male rats, 300 mg/kg/day for 28 days, Day 28 → 42 (recovery)): 50.60 g | Mean Bodyweight (male rats, 300 mg/kg/day for 28 days, Day 35 (recovery)): 415.68 dd^3 g | Mean Food Consumption (male rats, 300 mg/kg/day for 28 days, Day 35 → 42 (recovery)): 28.99 | Mean Bodyweight (male rats, 300 mg/kg/day for 28 days, Day 42 (recovery)): 446.14 d^4 g | Mean Bodyweight (male rats, 300 mg/kg/day, Day 7): 321.93 dd^2 g | Mean Bodyweight Gain [9]: 28.89 dd^3 g | Mean Food Consumption [9]: 20.24 dd^2 | Mean Bodyweight (male rats, 300 mg/kg/day, Day 14): 350.83 dd^2 g | Mean Bodyweight Gain [10]: 21.21 dd^3 g | Mean Food Consumption [10]: 21.50 dd^2 | Mean Bodyweight (male rats, 300 mg/kg/day, Day 21): 372.04 dd^2 g | Mean Bodyweight Gain [11]: 16.71 dd^3 g | Mean Food Consumption [11]: 20.78 dd^2 | Decrease of group mean body weight compared to Group 1 controls [12]: 16.2% | Mean Bodyweight [12]: 388.75 dd^2 g | Mean Bodyweight (male rats, 300 mg/kg/day, Day −1 (pre-dose)): 287.50 g | Mean Bodyweight Gain [13]: 34.43 dd^3 g | Mean Food Consumption [13]: 19.83 dd^2 | Mean Bodyweight Gain (male rats, 300 mg/kg/day, Day −1 → 28): 101.25 dd^3 g | Mean Bodyweight (male rats, 300 mg/kg/day, Day −2 (pre-dose)): 278.97 g | Decrease of group mean food consumption compared to Group 1 controls (male rats, 300 mg/kg/day): 16.7% | Mean serum triglyceride concentrations (male rats, 100 and 300 mg/kg/day): Decreased | Group mean weight gain from Day −1 to 28 (male rats, Group 2 (30 mg/kg/day)): 180 grams | Group mean weight gain from Day −1 to 28 (male rats, Group 3 (100 mg/kg/day)): 150 grams | Group mean weight gain from Day −1 to 28 (male rats, Group 4 (300 mg/kg/day)): 101 grams | Effects on serum triglyceride concentrations and red cell mass at the end of the 14-day recovery period (rats previously administered 300 mg/kg/day for 28 days): persisted | Alterations considered related to test article administration (rats, 30 mg/kg/day): no alterations | Organ weight, macroscopic or microscopic findings after recovery (rats, 300 mg/kg/day, Day 43 following 2-week treatment-free recovery): no J147-related organ weight, macroscopic or microscopic findings | Recovery of body weight and body weight gain (rats, 14-day recovery period): Full recovery | Motor activity portion of the Functional Observational Battery (FOB) (rats, Day 1, males at all dose levels, females at 100 and 300 mg/kg/day, not considered adverse): general decrease in activity | Subacute perivascular inflammation in the liver (microscopic) [14]: noted | Thymic lymphoid depletion [14]: noted | lowest-observed-adverse-effect-level (LOAEL) (rats, both sexes, 28-day oral gavage): 100 mg/kg/day | Body weight, body weight gain, and food consumption [15]: decreased | Food consumption compared to Group 1 controls [15]: decreased | Group mean thymus weights [15]: Decreases | Hepatocellular hypertrophy (microscopic) [15]: seen | Prothrombin time (rats, both sexes, all dose levels): decreased | Mean platelet and reticulocyte counts (rats, end of 28-day treatment, all dose levels, both sexes): increased | Mean red blood cell counts, hematocrit, and hemoglobin values (rats, end of 28-day treatment, males at all dose levels, females at 100 and 300 mg/kg/day): decreased | Terminal necropsy findings (rats, one or two animals at 300 mg/kg/day): enlarged liver and small thymus | J147-related effects on body weight and food consumption following cessation of treatment (rats, recovery period): reversible | Noteworthy clinical observations during the 28-day treatment period (rats, some animals of both sexes, 300 mg/kg/day): soft feces | Incidence of single cell necrosis of acinar cells in the pancreas (rats, both sexes at 300 mg/kg/day, males at 100 mg/kg/day): increased | Mean serum glucose concentrations (rats, males at 100 mg/kg/day, both sexes at 300 mg/kg/day): Decreased | Group mean liver weights (rats, males at all dose levels, females at 100 and 300 mg/kg/day): increased
